Laboratory results from patent US5166214A, “Use of imidazoles for the treatment of atherosclerosis” (priority 1990, dated 1992).
Like-named read-outs stand apart in the source and are kept apart here. Blank lines part the entries; values can stand above or below the molecule they belong to.

Columns and labels:
[1] = target: T1, Acyl-CoA: Cholesterol Acyltransferase (ACAT) (Rattus norvegicus, UniProt Q7TQM4); assay: Inhibition of acyl-CoA: cholesterol acyltransferase (ACAT) in hepatic microsomes (in vitro); format: biochemical, rat (male Sprague Dawley)
T1 construct: Microsomes were obtained by differential centrifugation; from tissue; host or cells: liver microsomes of male Sprague Dawley rats
T1 sequence (Q7TQM4 1-524): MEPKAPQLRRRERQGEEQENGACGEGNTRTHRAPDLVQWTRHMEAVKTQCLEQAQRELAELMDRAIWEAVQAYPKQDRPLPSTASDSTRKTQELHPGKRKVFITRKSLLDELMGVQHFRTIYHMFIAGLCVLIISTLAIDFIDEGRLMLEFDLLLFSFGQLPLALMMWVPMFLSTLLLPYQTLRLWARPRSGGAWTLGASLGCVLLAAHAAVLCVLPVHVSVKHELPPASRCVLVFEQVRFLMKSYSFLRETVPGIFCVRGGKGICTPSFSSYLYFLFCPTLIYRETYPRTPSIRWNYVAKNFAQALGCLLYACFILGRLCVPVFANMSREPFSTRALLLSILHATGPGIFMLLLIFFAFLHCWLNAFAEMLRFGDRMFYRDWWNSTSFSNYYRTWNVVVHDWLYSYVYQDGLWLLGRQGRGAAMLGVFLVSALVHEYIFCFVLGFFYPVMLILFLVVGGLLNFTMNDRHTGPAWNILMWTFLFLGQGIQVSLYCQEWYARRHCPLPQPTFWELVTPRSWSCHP
Method: A. Assay of the Inhibition of Acyl-CoA: Cholesterol Acyltransferase (ACAT) in Hepatic Microsomes
The ability of the compounds to inhibit ACAT, the enzyme responsible for the intracellular synthesis of cholesteryl esters, was tested as follows. Male Sprague Dawley rats weighing 150-300 g, were fed rat chow ad libitum. The animals were fasted for twenty-four hours prior to being sacrificed by decapitation. The livers were perfused in situ with 50 ml of cold 0.25M sucrose, excised, and homogenized in three volumes of 0.1M phosphate buffer, pH 7.4, that contained 0.5 mM EDTA (ethylenediaminetetraacetic acid), 1.0 mM glutathione, 0.25M sucrose and […]. Microsomes were obtained by differential centrifugation; the supernatant from an initial spin at 15,000×g for 15 minutes was centrifuged at 105,000×g for 1 hour to pellet the microsomes. The microsomes were suspended in homogenization buffer, reisolated by centrifugation, and stored at -70° C. Microsomes were used within one month of preparation.
The control assay in a final volume of 200 μl consisted of 200 μg of microsomal protein, 75 μM ^14 C-oleoyl-CoA (10,000 dpm/nmol) in 0.1M phosphate, pH 7.4, that contained 1 mM glutathione. Compounds were added in 5 μl of DMSO (dimethyl sulfoxide) and additional controls were run with DMSO only. All components, except the oleoyl-CoA, were preincubated for 15 min. at 37° C. prior to the initiation of the reaction by the addition of oleoyl-CoA. The assay was terminated after 10 min by the addition of 4 ml of chloroform:methanol (2:1, v/v). 20,000 dpm of ^3 H-cholesteryl oleate and 10 μg of unlabeled cholesteryl oleate and oleic acid were added as an internal standard and carriers, respectively. After allowing 10 min. for lipid extraction, the samples were centrifuged at 1,000×g for 10 min. to separate the solvent layers. The chloroform layer containing the neutral lipids was spotted onto a Baker SI250-Pa silica gel TLC plate and the plate developed using a hexane: diethyl ether: acetic acid (170:30:1 v/v/v) mobile phase. The lipids were visualized by their interaction with iodine vapor and the cholesteryl ester spot was scraped into a scintillation vial and counted.

[2] = test system: murine macrophage-like cell line J774.A1; assay: Inhibition of cholesterol esterification in mammalian cells (macrophage assay); format: cell-based; conditions: J774.A1 macrophages loaded with ac-LDL, 14C-oleic acid; read-out: Cholesterol Esterification IC50
Method: B. Assay of the Inhibition of Cholesterol Esterification in Mammalian Cells
The esterification of cholesterol was determined in the murine macrophage-like cell line J774.A1. Cells were seeded in 35 mm wells at a density of 300,000 cells per well in 2 mls of Dulbecco's Eagle Medium (DMEM) supplemented with 10% fetal bovine serum (FBS). Cells were incubated at 37° C. in an atmosphere of 5% CO2 and 93% humidity. After 24 hours the media was changed to 0.68 mls 10% FBS-DMEM containing 34 μg of acetylated human low density lipoprotein (ac-LDL) to increase the intracellular concentration of cholesterol and promote esterification. At 41 hours, various inhibitors were added to the cells in DMSO (10 μl/ml maximum). At 43 hours, the cells were pulsed with 0.1 mM ^14 C-oleic acid (10,000 dpm/nmol) complexed with BSA (bovine serum albumin) to follow cholesterol ester formation. The experiment was terminated at 45 hours by washing the monolayers 3 times with 3 ml of Tris-buffered saline at 4° C. The lipids were extracted by incubating the monolayers with 1.5 ml of hexane:isopropanol (3:2, v/v) for 30 min. under gentle agitation. During this period, 10,000 dpm 3H-cholesteryl linoleate and 10 μg of cholesteryl oleate were added as an internal standard and carrier respectively. The organic solvent was removed and the cells were washed with an additional 1.0 ml of hexane: isopropanol which was combined with the original extract. The cells were allowed to dry overnight, digested with 1.5 ml of 0.2N sodium hydroxide for 1 hour and an aliquot of the solubilized protein used for protein determination using the Lowry method. The organic extract was taken to dryness, the residue resuspended in 100 μl of chloroform and the lipids separated on silica gel impregnated glass fiber plates using a hexane:diethylether:acetic acid (170:30:1, v/v/v) solvent system. Individual lipids were visualized with iodine and the cholesteryl ester spot cut out and transferred to scintillation vials to determine the amount of radioactivity. The conversion of oleic acid to cholesteryl ester in the control averaged 0.54 […] and was increased upon the addition of ac-LDL to about 10.69±0.69 […]. […] It should be noted that many of the intermediates had inhibitory activity in the in vitro ACAT assay and in the macrophage assay.

[3] = rat hepatic microsomes, 75 μM 14C-oleoyl-CoA, pH 7.4, 37° C., read-out: In Vitro ACAT IC50

SMILES: CCCCCCCN(CCCCCSc1nc(-c2ccccc2)c(-c2ccccc2)[nH]1)C(=O)Nc1ccccc1 [Example 2, N-[5-(4,5-diphenyl-1H-imidazol-2-ylthio)pentyl]-N-heptyl-N'-phenylurea]
IC50 [1, 3]: 3 nM
IC50 [2]: 800 nM

SMILES: CCCCN(CCCCCCCCSc1nc(-c2ccccc2)c(-c2ccccc2)[nH]1)C(=O)Nc1ccc(F)cc1F [Example 4, N-butyl-N'-(2,4-difluorophenyl)-N-[8-(4,5-diphenyl-1H-imidazol-2-ylthio)octyl]urea]
IC50 [1, 3]: 60 nM
IC50 [2]: 4600 nM

SMILES: CCCCCCCN(CCCCCSc1nc(-c2ccccc2)c(-c2ccccc2)[nH]1)C(=O)Nc1ccc(OC)cc1OC [Example 5, N'-(2,4-dimethoxyphenyl)-N-[5-(4,5-diphenyl-1H-imidazol-2-ylthio)pentyl]-N-heptylurea]
IC50 [1, 3]: 12 nM
IC50 [2]: 2500 nM

SMILES: CCCCCCCN(CCCCCSc1nc(-c2ccccc2)c(-c2ccccc2)[nH]1)C(=O)NC [Example 7, N-[5-(4,5-diphenyl-1H-imidazol-2-ylthio)pentyl]-N-heptyl-N'-methylurea]
IC50 [1, 3]: 41 nM
IC50 [2]: 7500 nM

SMILES: CCCN(CCSc1nc(-c2ccccc2)c(-c2ccccc2)[nH]1)C(=O)Nc1ccc(F)cc1F [Example 9, N'-(2.4-difluorophenyl)-N[-2-(4,5-diphenyl-1H-imidazol-2-ylthio)ethyl]-N-propylurea]
IC50 [1, 3]: 930 nM
IC50 [2]: 11200 nM

SMILES: CCCCCCCN(CCCCCSc1nc(-c2ccccc2)c(-c2ccccc2)n1-c1ccccc1)C(=O)Nc1ccc(F)cc1F [Example 20]
IC50 [1, 3]: 20 nM
IC50 [2]: 54500 nM

SMILES: CCCCCCCN(CCCCCSc1nc(-c2ccccc2)c(-c2ccccc2)[nH]1)C(=O)Nc1cccc(F)c1 [Example 53, N-[5-(4,5-diphenyl-1H-imidazol-2-ylthio)pentyl]-N'-(3-fluorophenyl)-N-heptylurea]
IC50 [1, 3]: 17 nM
IC50 [2]: 400 nM

SMILES: CCCCCCCN(CCCCCSc1nc(-c2ccccc2)c(-c2ccccc2)[nH]1)C(=O)Nc1c(Cl)cccc1Cl [Example 64, N'-(2,6-dichlorophenyl)-N-[5-(4,5-diphenyl-1H-imidazol-2-ylthio)pentyl]-N-heptylurea]
IC50 [1, 3]: 30 nM
IC50 [2]: 600 nM

SMILES: CCCCCCCN(CCCCCSc1nc(-c2ccccc2)c(-c2ccccc2)[nH]1)C(=O)Nc1ccc(C#N)cc1 [Example 85, N'-(4-cyanophenyl)-N-[5-(4,5-diphenyl-1H-imidazol-2-ylthio)pentyl]-N-heptylurea]
IC50 ([1]; In Vitro ACAT IC50): 60 nM
IC50 [2]: 3100 nM

SMILES: CCCCCCCCNC(=O)N(CCCCCCC)CCCCCSc1nc(-c2ccccc2)c(-c2ccccc2)[nH]1 [Example 97, N-[5-(4,5-diphenyl-1H-imidazol-2-ylthio)pentyl]-N-heptyl-N'-octylurea]
IC50 [1, 3]: 25 nM
IC50 [2]: 700 nM

SMILES: CCCCCCCN(CCCCCSc1nc(-c2ccccn2)c(-c2ccccn2)[nH]1)C(=O)Nc1ccc(F)cc1F [Example 107, N-[5-[4,5-bis(2-pyridinyl)-1H-imidazol-2-ylthio]pentyl]-N'-(2,4-difluorophenyl)-N-heptylurea]
IC50 [1, 3]: 1000 nM
IC50 [2]: 2300 nM

SMILES: CCCCCCCN(CCCCCSc1nc(-c2cccs2)c(-c2cccs2)[nH]1)C(=O)Nc1ccc(F)cc1F [Example 110, N-[5-[4,5-bis(2-thienyl)-1H-imidazol-2-ylthio]pentyl]-N'-(2,4-difluorophenyl)-N-heptylurea]
IC50 [1, 3]: 60 nM
IC50 [2]: 900 nM

SMILES: CCCCCCCN(CCCCCSc1nc(-c2ccc(F)cc2)c(-c2ccc(F)cc2)[nH]1)C(=O)Nc1ccc(F)cc1F [Example 114, N-[5-[4,5-bis(4-fluorophenyl)-1H-imidazol-2-ylthio]pentyl]-N'-(2,4-difluorophenyl)-N-heptylurea]
IC50 [1, 3]: 40 nM
IC50 [2]: 3500 nM

SMILES: CCCCCCCN(CCCCCSc1nc(-c2ccc(OC)cc2)c(-c2ccc(OC)cc2)[nH]1)C(=O)Nc1ccc(F)cc1F [Example 118, N-[5-[4,5-bis(4-methoxyphenyl)-1H-imidazol-2-ylthio]pentyl]-N'-(2,4-difluorophenyl)-N-heptylurea]
IC50 [1, 3]: 170 nM
IC50 [2]: 100 nM

SMILES: CCCCCCCN(CCCCCSc1nc(-c2ccc(C)cc2)c(-c2ccc(C)cc2)[nH]1)C(=O)Nc1ccc(F)cc1F [Example 122, N-[5-[4,5-bis(4-methylphenyl)-1H-imidazol-2-ylthio]pentyl]-N'-(2,4-difluorophenyl)-N-heptylurea]
IC50 [1, 3]: 80 nM
IC50 [2]: 300 nM

SMILES: CCCCCCCN(CCCCCSc1nc(-c2ccc(Cl)cc2)c(-c2ccc(Cl)cc2)[nH]1)C(=O)Nc1ccc(F)cc1F [Example 137]
IC50 [1, 3]: 76 nM
IC50 [2]: 3400 nM

SMILES: CCCCCCCN(CCCCCSc1ncc[nH]1)C(=O)Nc1ccc(F)cc1F [Example 186]
IC50 [1, 3]: 2850 nM
IC50 [2]: 6200 nM

SMILES: CCCCCCCN(CCCCCSc1nc(C(C)C)c(C(C)C)[nH]1)C(=O)Nc1ccc(F)cc1F [Example 188, N-[5-[4,5-bis(1-methylethyl)-1H-imidazol-2-ylthio]pentyl]-N'-(2,4-difluorophenyl)-N-heptylurea]
IC50 [1, 3]: 20 nM
IC50 [2]: 900 nM

SMILES: CCCCCCCN(CCCCCSc1nc(CCC)c(CCC)[nH]1)C(=O)Nc1ccc(F)cc1F [Example 193, N'-(2,4-difluorophenyl)-N-[5-(4,5-dipropyl-1H-imidazol-2-ylthio)pentyl]-N-heptylurea]
IC50 [1, 3]: 60 nM
IC50 [2]: 2700 nM

SMILES: CCCCCCCN(CCCCCSc1nc(-c2ccccn2)c(-c2ccccn2)[nH]1)C(=O)Nc1ccc(F)cc1F [Example 194]
IC50 [1, 3]: 1900 nM
IC50 [2]: 4100 nM

SMILES: CCCCCCCN(CCCCCSc1nc(-c2cccc(OC)c2)c(-c2cccc(OC)c2)[nH]1)C(=O)Nc1ccc(F)cc1F [Example 195, N-[5-[4,5-bis(3-methoxyphenyl)-1H-imidazol-2-ylthio]pentyl]-N'-(2,4-difluorophenyl)-N-heptylurea]
IC50 [1, 3]: 40 nM
IC50 [2]: 400 nM

IC50 [1, 3]: 200 nM
SMILES: CCCCN(CCCCCCCCSc1nc(-c2ccccc2)c(-c2ccccc2)[nH]1)C(=O)NC(C)C [Example 262]

SMILES: CCCCCCCN(CCCCCSc1nc(-c2ccc(N(C)C)cc2)c(-c2ccc(N(C)C)cc2)[nH]1)C(=O)Oc1ccccc1 [Example 409, Phenyl [5-[4,5-bis(4-(dimethylamino)phenyl)-1H-imidazol-2-ylthio]pentyl]heptylcarbamate]
IC50 ([1]; In Vitro ACAT IC50, rat hepatic microsomes, 75 μM 14C-oleoyl-CoA, pH 7.4, 37° C.): 120 nM
